Measured values published in ChEMBL document CHEMBL4507301 (2021).

Experiments:
[1] = biological target: MAP kinase-interacting serine/threonine-protein kinase 1 (Homo sapiens) (UniProt Q9BUB5); details: Compound concentration 1000.0 nM
[2] = biological target: Kappa-type opioid receptor (Homo sapiens) (UniProt P41145); details: Compound concentration 10.0 uM
[3] = biological target: Ephrin type-B receptor 1 (Homo sapiens) (UniProt P54762); details: Compound concentration 1000.0 nM
[4] = biological target: MAP kinase-activated protein kinase 5 (Homo sapiens) (UniProt Q8IW41); details: Compound concentration 1000.0 nM
[5] = tested on: Tyrosine-protein kinase ABL1 (Homo sapiens), P00519 [F317I]; details: Compound concentration 1000.0 nM
[6] = biological target: Tyrosine-protein kinase ABL1 (Homo sapiens) (UniProt P00519); details: Compound concentration 1000.0 nM
[7] = biological target: D(4) dopamine receptor (Homo sapiens) (UniProt P21917); details: Compound concentration 10.0 uM
[8] = biological target: Mitogen-activated protein kinase kinase kinase 13 (Homo sapiens) (UniProt O43283); details: Compound concentration 1000.0 nM
[9] = biological target: Cyclin-dependent kinase 4 (Homo sapiens) (UniProt P11802); details: Compound concentration 1000.0 nM
[10] = biological target: MAP kinase-activated protein kinase 2 (Homo sapiens) (UniProt P49137); details: Compound concentration 1000.0 nM
[11] = biological target: Hepatocyte growth factor receptor (Homo sapiens) (UniProt P08581); details: Compound concentration 1000.0 nM
[12] = biological target: Microtubule-associated serine/threonine-protein kinase 1 (Homo sapiens) (UniProt Q9Y2H9); details: Compound concentration 1000.0 nM
[13] = biological target: Mitogen-activated protein kinase 15 (Homo sapiens) (UniProt Q8TD08); details: Compound concentration 1000.0 nM
[14] = biological target: Tyrosine-protein kinase ZAP-70 (Homo sapiens) (UniProt P43403); details: Compound concentration 1000.0 nM
[15] = biological target: Serine/threonine-protein kinase WNK2 (Homo sapiens) (UniProt Q9Y3S1); details: Compound concentration 1000.0 nM
Sequence of Serine/threonine-protein kinase WNK2 (Homo sapiens) (Q9Y3S1 whole entry): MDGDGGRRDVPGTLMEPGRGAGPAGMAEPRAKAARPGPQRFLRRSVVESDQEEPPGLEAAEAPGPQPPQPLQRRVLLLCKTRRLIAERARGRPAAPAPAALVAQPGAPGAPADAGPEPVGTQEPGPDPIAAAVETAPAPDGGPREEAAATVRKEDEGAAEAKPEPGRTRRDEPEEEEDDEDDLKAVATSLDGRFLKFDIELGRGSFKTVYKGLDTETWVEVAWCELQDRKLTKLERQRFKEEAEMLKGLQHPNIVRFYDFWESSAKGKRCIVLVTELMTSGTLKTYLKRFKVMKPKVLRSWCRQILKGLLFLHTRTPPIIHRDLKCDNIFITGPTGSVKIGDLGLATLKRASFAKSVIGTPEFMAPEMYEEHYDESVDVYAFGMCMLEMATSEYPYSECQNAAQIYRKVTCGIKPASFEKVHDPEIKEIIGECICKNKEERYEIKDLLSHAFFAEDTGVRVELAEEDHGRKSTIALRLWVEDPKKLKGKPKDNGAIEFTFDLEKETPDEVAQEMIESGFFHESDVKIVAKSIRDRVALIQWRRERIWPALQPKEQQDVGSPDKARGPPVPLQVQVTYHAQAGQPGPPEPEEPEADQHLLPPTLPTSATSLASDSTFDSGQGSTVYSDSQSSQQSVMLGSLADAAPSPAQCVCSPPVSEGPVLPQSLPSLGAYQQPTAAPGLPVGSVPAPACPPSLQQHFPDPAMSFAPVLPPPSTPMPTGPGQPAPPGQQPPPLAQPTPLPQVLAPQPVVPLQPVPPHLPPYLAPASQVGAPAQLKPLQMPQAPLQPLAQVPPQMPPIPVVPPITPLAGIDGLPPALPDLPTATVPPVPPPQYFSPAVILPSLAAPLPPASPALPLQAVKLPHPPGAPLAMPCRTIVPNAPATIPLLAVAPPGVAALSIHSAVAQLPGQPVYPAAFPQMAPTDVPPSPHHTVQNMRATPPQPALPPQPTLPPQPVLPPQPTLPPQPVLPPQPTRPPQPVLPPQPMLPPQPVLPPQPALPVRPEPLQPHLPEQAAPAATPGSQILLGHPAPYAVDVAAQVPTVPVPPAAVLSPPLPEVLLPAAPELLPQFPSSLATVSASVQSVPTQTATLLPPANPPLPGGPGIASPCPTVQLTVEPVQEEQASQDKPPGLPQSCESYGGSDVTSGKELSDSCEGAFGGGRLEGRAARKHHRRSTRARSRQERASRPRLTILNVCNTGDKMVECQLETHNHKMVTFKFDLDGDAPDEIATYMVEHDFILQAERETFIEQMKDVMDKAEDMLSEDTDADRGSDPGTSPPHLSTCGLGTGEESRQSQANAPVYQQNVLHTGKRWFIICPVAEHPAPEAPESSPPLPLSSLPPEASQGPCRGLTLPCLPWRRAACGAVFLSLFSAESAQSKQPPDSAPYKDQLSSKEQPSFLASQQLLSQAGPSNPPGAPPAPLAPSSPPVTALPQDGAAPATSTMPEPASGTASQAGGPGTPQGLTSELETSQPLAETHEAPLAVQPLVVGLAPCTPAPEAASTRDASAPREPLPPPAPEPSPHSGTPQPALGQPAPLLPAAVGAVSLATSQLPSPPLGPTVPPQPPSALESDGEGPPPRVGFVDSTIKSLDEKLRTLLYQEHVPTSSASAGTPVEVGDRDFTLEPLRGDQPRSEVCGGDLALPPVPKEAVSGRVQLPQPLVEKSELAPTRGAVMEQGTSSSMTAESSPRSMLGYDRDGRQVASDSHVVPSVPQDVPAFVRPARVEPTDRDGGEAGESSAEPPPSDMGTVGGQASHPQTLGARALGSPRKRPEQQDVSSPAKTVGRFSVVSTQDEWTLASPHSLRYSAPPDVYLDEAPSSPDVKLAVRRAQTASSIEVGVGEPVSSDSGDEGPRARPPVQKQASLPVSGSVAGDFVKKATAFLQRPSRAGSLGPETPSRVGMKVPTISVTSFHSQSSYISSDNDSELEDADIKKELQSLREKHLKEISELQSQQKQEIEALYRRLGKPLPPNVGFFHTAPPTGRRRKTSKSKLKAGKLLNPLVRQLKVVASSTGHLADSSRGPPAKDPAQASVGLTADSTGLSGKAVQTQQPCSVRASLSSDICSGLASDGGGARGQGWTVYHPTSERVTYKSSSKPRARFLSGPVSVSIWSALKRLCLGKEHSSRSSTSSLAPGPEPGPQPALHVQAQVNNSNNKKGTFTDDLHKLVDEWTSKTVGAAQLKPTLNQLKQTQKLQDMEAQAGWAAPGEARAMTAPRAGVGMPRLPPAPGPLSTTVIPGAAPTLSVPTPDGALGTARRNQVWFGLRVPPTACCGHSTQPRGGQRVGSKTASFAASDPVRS

[16] = biological target: Serine/threonine-protein kinase Sgk1 (Homo sapiens) (UniProt O00141); details: Compound concentration 1000.0 nM
[17] = biological target: Mitogen-activated protein kinase 10 (Homo sapiens) (UniProt P53779); details: Compound concentration 1000.0 nM
Sequence of Mitogen-activated protein kinase 10 (Homo sapiens) (P53779 whole entry): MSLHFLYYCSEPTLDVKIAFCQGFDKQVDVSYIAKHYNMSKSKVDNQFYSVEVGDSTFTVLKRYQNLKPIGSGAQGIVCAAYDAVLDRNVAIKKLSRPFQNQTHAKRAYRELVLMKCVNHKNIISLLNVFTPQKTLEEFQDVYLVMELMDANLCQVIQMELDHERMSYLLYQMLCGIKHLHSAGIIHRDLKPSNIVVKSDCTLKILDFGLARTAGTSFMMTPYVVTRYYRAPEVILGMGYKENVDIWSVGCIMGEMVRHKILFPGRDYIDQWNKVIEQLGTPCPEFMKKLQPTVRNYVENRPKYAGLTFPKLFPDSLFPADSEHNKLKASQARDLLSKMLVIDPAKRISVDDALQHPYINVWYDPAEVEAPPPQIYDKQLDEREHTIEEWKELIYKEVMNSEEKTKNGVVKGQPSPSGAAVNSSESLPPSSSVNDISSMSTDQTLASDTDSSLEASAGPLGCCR

[18] = biological target: Serine/threonine-protein kinase Sgk3 (Homo sapiens) (UniProt Q96BR1); details: Compound concentration 1000.0 nM
[19] = biological target: Ephrin type-B receptor 4 (Homo sapiens) (UniProt P54760); details: Compound concentration 1000.0 nM
[20] = biological target: Histamine H1 receptor (Homo sapiens) (UniProt P35367); details: Compound concentration 10.0 uM
[21] = biological target: 5-hydroxytryptamine receptor 2A (Homo sapiens) (UniProt P28223); details: Compound concentration 10.0 uM
[22] = biological target: NUAK family SNF1-like kinase 2 (Homo sapiens) (UniProt Q9H093); details: Compound concentration 1000.0 nM
[23] = biological target: Receptor-interacting serine/threonine-protein kinase 1 (Homo sapiens) (UniProt Q13546); details: Compound concentration 1000.0 nM
[24] = biological target: Eukaryotic translation initiation factor 2-alpha kinase 1 (Homo sapiens) (UniProt Q9BQI3); details: Compound concentration 1000.0 nM
Sequence of Eukaryotic translation initiation factor 2-alpha kinase 1 (Homo sapiens) (Q9BQI3 whole entry): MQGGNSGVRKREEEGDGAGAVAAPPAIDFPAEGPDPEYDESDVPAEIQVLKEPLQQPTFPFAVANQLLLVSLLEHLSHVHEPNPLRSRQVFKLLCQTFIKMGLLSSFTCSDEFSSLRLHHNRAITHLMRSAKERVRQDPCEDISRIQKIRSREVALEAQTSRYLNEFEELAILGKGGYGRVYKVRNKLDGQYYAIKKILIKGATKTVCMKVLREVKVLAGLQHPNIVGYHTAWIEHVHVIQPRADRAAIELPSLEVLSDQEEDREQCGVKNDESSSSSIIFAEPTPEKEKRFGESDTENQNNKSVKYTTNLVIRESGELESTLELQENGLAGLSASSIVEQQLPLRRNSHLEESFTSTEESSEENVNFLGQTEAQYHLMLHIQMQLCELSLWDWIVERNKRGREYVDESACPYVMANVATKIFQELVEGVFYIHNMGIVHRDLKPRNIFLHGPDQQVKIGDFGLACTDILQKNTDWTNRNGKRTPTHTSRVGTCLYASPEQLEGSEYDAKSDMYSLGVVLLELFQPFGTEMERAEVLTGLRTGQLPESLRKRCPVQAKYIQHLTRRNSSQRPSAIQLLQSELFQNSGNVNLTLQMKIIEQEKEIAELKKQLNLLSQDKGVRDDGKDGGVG

[25] = biological target: Activin receptor type-1-like (Homo sapiens) (UniProt P37023); details: Compound concentration 1000.0 nM
[26] = biological target: Mitogen-activated protein kinase 13 (Homo sapiens) (UniProt O15264); details: Compound concentration 1000.0 nM
[27] = biological target: Phosphorylase b kinase regulatory subunit alpha, liver isoform (Homo sapiens) (UniProt P46019); details: Compound concentration 1000.0 nM
Sequence of Phosphorylase b kinase regulatory subunit alpha, liver isoform (Homo sapiens) (P46019 whole entry, canonical isoform): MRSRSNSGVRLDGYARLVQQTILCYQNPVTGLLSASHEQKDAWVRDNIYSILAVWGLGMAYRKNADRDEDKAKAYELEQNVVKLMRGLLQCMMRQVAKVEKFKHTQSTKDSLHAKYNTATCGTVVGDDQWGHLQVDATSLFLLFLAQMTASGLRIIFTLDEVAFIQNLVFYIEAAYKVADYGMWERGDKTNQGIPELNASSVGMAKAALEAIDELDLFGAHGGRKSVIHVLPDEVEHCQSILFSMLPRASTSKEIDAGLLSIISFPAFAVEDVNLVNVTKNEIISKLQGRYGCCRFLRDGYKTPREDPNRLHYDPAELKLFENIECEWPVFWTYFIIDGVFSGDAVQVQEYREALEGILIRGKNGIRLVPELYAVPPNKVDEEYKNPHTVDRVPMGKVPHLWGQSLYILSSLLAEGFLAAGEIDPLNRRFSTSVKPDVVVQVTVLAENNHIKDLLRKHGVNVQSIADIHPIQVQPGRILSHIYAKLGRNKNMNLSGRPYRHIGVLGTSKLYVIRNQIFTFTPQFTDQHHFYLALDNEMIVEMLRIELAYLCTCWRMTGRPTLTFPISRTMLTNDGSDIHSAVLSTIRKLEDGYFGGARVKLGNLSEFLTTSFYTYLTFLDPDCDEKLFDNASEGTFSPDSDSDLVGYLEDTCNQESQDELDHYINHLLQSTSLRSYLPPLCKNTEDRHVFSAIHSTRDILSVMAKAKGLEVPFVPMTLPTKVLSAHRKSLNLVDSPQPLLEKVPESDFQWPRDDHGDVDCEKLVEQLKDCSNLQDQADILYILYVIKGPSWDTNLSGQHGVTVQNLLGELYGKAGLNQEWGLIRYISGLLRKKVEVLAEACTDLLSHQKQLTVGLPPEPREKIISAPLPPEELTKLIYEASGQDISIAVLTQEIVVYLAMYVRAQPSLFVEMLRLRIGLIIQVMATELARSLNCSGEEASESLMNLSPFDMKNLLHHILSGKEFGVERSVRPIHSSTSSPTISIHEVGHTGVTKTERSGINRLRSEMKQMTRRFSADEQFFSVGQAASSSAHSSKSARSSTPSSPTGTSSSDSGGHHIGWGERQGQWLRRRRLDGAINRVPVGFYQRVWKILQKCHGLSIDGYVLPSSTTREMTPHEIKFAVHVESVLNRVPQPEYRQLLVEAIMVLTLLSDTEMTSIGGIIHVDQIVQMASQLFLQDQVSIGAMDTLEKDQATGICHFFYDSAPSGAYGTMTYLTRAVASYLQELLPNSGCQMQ

[28] = biological target: Casein kinase II subunit alpha' (Homo sapiens) (UniProt P19784); details: Compound concentration 1000.0 nM
[29] = biological target: Serine/threonine-protein kinase PAK 1 (Homo sapiens) (UniProt Q13153); details: Compound concentration 1000.0 nM
[30] = biological target: Serine/threonine-protein kinase WNK1 (Homo sapiens) (UniProt Q9H4A3); details: Compound concentration 1000.0 nM
[31] = biological target: Leukocyte tyrosine kinase receptor (Homo sapiens) (UniProt P29376); details: Compound concentration 1000.0 nM
[32] = biological target: SRSF protein kinase 3 (Homo sapiens) (UniProt Q9UPE1); details: Compound concentration 1000.0 nM
[33] = biological target: Aurora kinase C (Homo sapiens) (UniProt Q9UQB9); details: Compound concentration 1000.0 nM
[34] = biological target: Dual specificity protein kinase CLK2 (Homo sapiens) (UniProt P49760); details: Compound concentration 1000.0 nM
[35] = tested on: Receptor-type tyrosine-protein kinase FLT3 (Homo sapiens), P36888 [D835Y]; details: Compound concentration 1000.0 nM
[36] = biological target: Mitogen-activated protein kinase kinase kinase 5 (Homo sapiens) (UniProt Q99683); details: Compound concentration 1000.0 nM
[37] = biological target: Myosin light chain kinase 2, skeletal/cardiac muscle (Homo sapiens) (UniProt Q9H1R3); details: Compound concentration 1000.0 nM
[38] = biological target: Dual specificity tyrosine-phosphorylation-regulated kinase 2 (Homo sapiens) (UniProt Q92630); details: Compound concentration 1000.0 nM
[39] = biological target: MAP/microtubule affinity-regulating kinase 3 (Homo sapiens) (UniProt P27448); details: Compound concentration 1000.0 nM
[40] = biological target: Tyrosine-protein kinase HCK (Homo sapiens) (UniProt P08631); details: Compound concentration 1000.0 nM
[41] = biological target: Cyclin-dependent kinase 11A (Homo sapiens) (UniProt Q9UQ88); details: Compound concentration 1000.0 nM
[42] = biological target: 5-hydroxytryptamine receptor 1D (Homo sapiens) (UniProt P28221); details: Compound concentration 10.0 uM
Sequence of 5-hydroxytryptamine receptor 1D (Homo sapiens) (P28221 whole entry): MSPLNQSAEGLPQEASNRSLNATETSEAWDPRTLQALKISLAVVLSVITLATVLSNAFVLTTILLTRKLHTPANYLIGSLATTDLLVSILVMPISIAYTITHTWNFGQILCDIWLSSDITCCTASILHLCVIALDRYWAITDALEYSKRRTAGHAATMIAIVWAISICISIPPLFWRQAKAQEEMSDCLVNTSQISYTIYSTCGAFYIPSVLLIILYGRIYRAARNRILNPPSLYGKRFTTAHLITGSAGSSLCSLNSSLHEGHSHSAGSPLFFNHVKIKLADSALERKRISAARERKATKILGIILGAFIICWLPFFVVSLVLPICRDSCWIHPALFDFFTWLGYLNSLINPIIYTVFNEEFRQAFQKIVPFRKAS

[43] = biological target: Sodium-dependent noradrenaline transporter (Homo sapiens) (UniProt P23975); details: Compound concentration 10.0 uM
[44] = biological target: Calcium/calmodulin-dependent protein kinase kinase 1 (Homo sapiens) (UniProt Q8N5S9); details: Compound concentration 1000.0 nM
[45] = biological target: Phosphatidylinositol 4-phosphate 5-kinase type-1 gamma (Homo sapiens) (UniProt O60331); details: Compound concentration 1000.0 nM

C[C@@H](c1cccc(C#N)c1)n1cc(Cl)cc(C(N)=O)c1=N [(S)-9s]
inactive: residual activity [1] 86% | inhibition [2] 1.2% | residual activity [3] 94% | residual activity [4] 93% | residual activity [5] 76% | residual activity [6] 82% | inhibition [7] 10.1% | residual activity [8] 100% | residual activity [9] 91% | residual activity [10] 97% | residual activity [11] 93% | residual activity [12] 100% | residual activity [13] 100% | residual activity [14] 84% | residual activity [15] 67% | residual activity [16] 100% | residual activity [17] 100% | residual activity [18] 77% | residual activity [19] 96% | inhibition [20] -9.05% | inhibition [21] 5.24% | residual activity [22] 86% | residual activity [23] 100% | residual activity [24] 95% | residual activity [25] 80% | residual activity [26] 98% | residual activity [27] 100% | residual activity [28] 100% | residual activity [29] 100% | residual activity [30] 97% | residual activity [31] 94% | residual activity [32] 100% | residual activity [33] 96% | residual activity [34] 100% | residual activity [35] 97% | residual activity [36] 100% | residual activity [37] 100% | residual activity [38] 98% | residual activity [39] 98% | residual activity [40] 91% | residual activity [41] 90% | inhibition [42] 3.77% | inhibition [43] -4.73% | residual activity [44] 100% | residual activity [45] 100%

C[C@H](c1cccc(C#N)c1)n1cc(Cl)cc(C(N)=O)c1=N [(R)-9s]
inactive: residual activity [1] 63% | inhibition [2] -0.22% | residual activity [3] 100% | residual activity [4] 84% | residual activity [5] 85% | residual activity [6] 100% | inhibition [7] 6.56% | residual activity [8] 97% | residual activity [9] 96% | residual activity [10] 100% | residual activity [11] 100% | residual activity [12] 96% | residual activity [13] 100% | residual activity [14] 92% | residual activity [15] 58% | residual activity [16] 77% | residual activity [17] 100% | residual activity [18] 80% | residual activity [19] 89% | inhibition [20] -6.96% | inhibition [21] 12.3% | residual activity [22] 91% | residual activity [23] 100% | residual activity [24] 100% | residual activity [25] 93% | residual activity [26] 100% | residual activity [27] 100% | residual activity [28] 100% | residual activity [29] 100% | residual activity [30] 89% | residual activity [31] 99% | residual activity [32] 100% | residual activity [33] 91% | residual activity [34] 100% | residual activity [35] 96% | residual activity [36] 85% | residual activity [37] 100% | residual activity [38] 84% | residual activity [39] 100% | residual activity [40] 98% | residual activity [41] 100% | inhibition [42] 34.1% | inhibition [43] -7.01% | residual activity [44] 87% | residual activity [45] 99%
